Laboratory results reported in the supplement of paper PMC11451515.

System: P12-Ichikawa
Test: cell viability relative to DMSO control; higher = less cytotoxic
Conditions: 48 h
Outline: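 Viability, reported as a per-plate percentage of DMSO wells with cell-free wells as background, came from CellTiter-Glo One luminescence. Reading took place after 48 h at 37°C. Before that, NOMO1 or SEM (500 cells/well) or P12-Ichikawa (1000 cells/well) leukemia cells, adapted for at least four passages in each medium, were seeded in 1536-well plates (5 μl) and pin-dosed with library compounds in DMSO, 47 μM to 0.79 nM over 11 threefold points.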

[1] = HPLM + 10% dialyzed FBS, 0.000781 µM
[2] = HPLM + 10% dialyzed FBS, 0.00234 µM
[3] = HPLM + 10% dialyzed FBS, 0.00702 µM
[4] = HPLM + 10% dialyzed FBS, 0.0211 µM
[5] = HPLM + 10% dialyzed FBS, 0.0632 µM
[6] = HPLM + 10% dialyzed FBS, 0.19 µM
[7] = HPLM + 10% dialyzed FBS, 0.569 µM
[8] = HPLM + 10% dialyzed FBS, 1.71 µM
[9] = HPLM + 10% dialyzed FBS, 5.12 µM
[10] = HPLM + 10% dialyzed FBS, 15.4 µM
[11] = HPLM + 10% dialyzed FBS, 46.1 µM
[12] = RPMI 5 mM glucose + 10% FBS, 0.000781 µM
[13] = RPMI 5 mM glucose + 10% FBS, 0.00234 µM
[14] = RPMI 5 mM glucose + 10% FBS, 0.00702 µM
[15] = RPMI 5 mM glucose + 10% FBS, 0.0211 µM
[16] = RPMI 5 mM glucose + 10% FBS, 0.0632 µM
[17] = RPMI 5 mM glucose + 10% FBS, 0.19 µM
[18] = RPMI 5 mM glucose + 10% FBS, 0.569 µM
[19] = RPMI 5 mM glucose + 10% FBS, 1.71 µM
[20] = RPMI 5 mM glucose + 10% FBS, 5.12 µM
[21] = RPMI 5 mM glucose + 10% FBS, 15.4 µM
[22] = RPMI 5 mM glucose + 10% FBS, 46.1 µM
[23] = RPMI 5 mM glucose + 10% dialyzed FBS, 0.000781 µM
[24] = RPMI 5 mM glucose + 10% dialyzed FBS, 0.00234 µM
[25] = RPMI 5 mM glucose + 10% dialyzed FBS, 0.00702 µM
[26] = RPMI 5 mM glucose + 10% dialyzed FBS, 0.0211 µM
[27] = RPMI 5 mM glucose + 10% dialyzed FBS, 0.0632 µM
[28] = RPMI 5 mM glucose + 10% dialyzed FBS, 0.19 µM
[29] = RPMI 5 mM glucose + 10% dialyzed FBS, 0.569 µM
[30] = RPMI 5 mM glucose + 10% dialyzed FBS, 1.71 µM
[31] = RPMI 5 mM glucose + 10% dialyzed FBS, 5.12 µM
[32] = RPMI 5 mM glucose + 10% dialyzed FBS, 15.4 µM
[33] = RPMI 5 mM glucose + 10% dialyzed FBS, 46.1 µM

Structure (SMILES) | cell viability [1] | cell viability [2] | cell viability [3] | cell viability [4] | cell viability [5] | cell viability [6] | cell viability [7] | cell viability [8] | cell viability [9] | cell viability [10] | cell viability [11] | cell viability [12] | cell viability [13] | cell viability [14] | cell viability [15] | cell viability [16] | cell viability [17] | cell viability [18] | cell viability [19] | cell viability [20] | cell viability [21] | cell viability [22] | cell viability [23] | cell viability [24] | cell viability [25] | cell viability [26] | cell viability [27] | cell viability [28] | cell viability [29] | cell viability [30] | cell viability [31] | cell viability [32] | cell viability [33]
Nc1ccc([S+](=O)([O-])Nc2ncccn2)cc1 | 118% | 120% | 124% | 95.8% | 128% | 131% | 126% | 125% | 125% | 119% | 126% | 115% | 114% | 122% | 74.2% | 133% | 118% | 127% | 126% | 132% | 133% | 106% | – | – | – | – | – | – | – | – | – | – | –
Cn1cnc([N+](=O)[O-])c1Sc1ncnc2nc[nH]c12 | 95.4% | 97% | 98.4% | 95.7% | 102% | 97.7% | 96.5% | 86% | 36.2% | 28.4% | 29.2% | 81.8% | 88.5% | 82.1% | 88.5% | 99.2% | 95.1% | 90.9% | 79.9% | 64.5% | 28.3% | 19.4% | 88.9% | 95.3% | 98.1% | 91% | 97.2% | 92.1% | 88.5% | 72.6% | 63.2% | 21.2% | 13.7%
C[C@H]1Oc2cc(cnc2N)-c2c(nn(C)c2C#N)CN(C)C(=O)c2ccc(F)cc21 | 118% | 120% | 119% | 120% | 120% | 124% | 122% | 110% | 112% | 112% | 96.3% | 120% | 122% | 123% | 113% | 123% | 119% | 119% | 112% | 114% | 114% | 105% | – | – | – | – | – | – | – | – | – | – | –
CCOC(=O)O[C@]1(C(=O)OCCl)CC[C@H]2[C@@H]3CCC4=CC(=O)C=C[C@]4(C)[C@H]3[C@@H](O)C[C@@]21C | 97.6% | 102% | 99.3% | 107% | 105% | 118% | 101% | 104% | 86.1% | 101% | 102% | 95.9% | 95.8% | 95.7% | 95% | 110% | 102% | 111% | 100% | 76% | 97.1% | 88.5% | 89% | 93.3% | 94.6% | 98.3% | 99.3% | 91.1% | 98.4% | 102% | 83.4% | 98.5% | 90.3%
Cc1cnc(Nc2ccc(N3CCN(C)CC3)cc2)nc1Nc1cccc([S+](=O)([O-])NC(C)(C)C)c1 | 133% | 104% | 109% | 121% | 118% | 109% | 103% | 90.8% | 88.7% | 10.6% | 2.36% | 112% | 120% | 119% | 120% | 124% | 111% | 117% | 91.3% | 80.2% | 16.2% | 7.55% | 108% | 115% | 114% | 113% | 106% | 107% | 102% | 92.7% | 76.6% | 48.4% | 4.62%
COC(=O)[C@H](c1ccccc1Cl)N1CCc2sccc2C1 | 95.8% | 99.1% | 100% | 109% | 108% | 113% | 107% | 110% | 102% | 15.7% | 12.9% | 101% | 113% | 120% | 117% | 120% | 125% | 122% | 113% | 115% | 21.4% | 14.1% | 91.6% | 105% | 109% | 111% | 115% | 111% | 118% | 117% | 104% | 45.9% | 18.7%
C1COC(NC(C2CC2)C2CC2)=N1 | 82.7% | 92% | 84.2% | 94.6% | 88.9% | 90.7% | 95.5% | 85.4% | 88.9% | 100% | 77.1% | 89.2% | 103% | 106% | 98.4% | 103% | 97.6% | 93.8% | 91.3% | 94.6% | 95.5% | 77.7% | 79.5% | 80.5% | 87.1% | 91.6% | 87.2% | 82.4% | 88.6% | 83.4% | 91.6% | 89.3% | 58.8%
Oc1ccc2ccccc2c1SSc1c(O)ccc2ccccc12 | 98.4% | 100% | 105% | 108% | 106% | 109% | 110% | 109% | 109% | 105% | 94.2% | 105% | 114% | 106% | 107% | 101% | 109% | 116% | 109% | 106% | 101% | 62.2% | 88.3% | 98.9% | 95.5% | 109% | 99.2% | 104% | 105% | 103% | 98.3% | 94.3% | 52.3%
CC(C)n1cnc2c(NCCc3ccc(O)cc3)nc(-c3csc4ccccc34)nc21 | 105% | 111% | 109% | 114% | 119% | 115% | 107% | 117% | 24.9% | 6.01% | 2.93% | 106% | 108% | 116% | 107% | 116% | 112% | 116% | 129% | 125% | 53.5% | 3.44% | 98.3% | 109% | 112% | 112% | 119% | 114% | 118% | 119% | 130% | 38.6% | 2.43%
CO[C@@H]1[C@@H](O)[C@H](O)[C@@H](n2c3c(Cl)cccc3c3c4c(c5c6cccc(Cl)c6[nH]c5c32)C(=O)NC4=O)O[C@H]1CO | 109% | 100% | 108% | 106% | 100% | 81.9% | 14.3% | 5.78% | 7.57% | 4.61% | 3.32% | 101% | 104% | 103% | 103% | 94.9% | 71% | 8.36% | 6.11% | 4.86% | 3.72% | 3.9% | 97.7% | 91.4% | 96.1% | 94.7% | 85.7% | 68.4% | 14% | 7.72% | 8.77% | 6.63% | 4.8%
CC(C)(Sc1ccc(CCN(CCCCC2CCCCC2)C(=O)NC2CCCCC2)cc1)C(=O)O | 114% | 115% | 116% | 115% | 110% | 109% | 111% | 105% | 107% | 101% | 83.4% | 111% | 112% | 106% | 110% | 109% | 111% | 115% | 102% | 107% | 89% | 86.2% | 113% | 110% | 114% | 122% | 116% | 113% | 104% | 111% | 104% | 102% | 73.5%
Oc1c(Cl)cc(Cl)c2cccnc12 | 107% | 112% | 109% | 100% | 105% | 107% | 112% | 103% | 109% | 97.4% | 70.6% | 100% | 95.4% | 109% | 107% | 108% | 102% | 101% | 101% | 96.2% | 80.8% | 30.5% | 99.1% | 99.4% | 110% | 95.2% | 102% | 101% | 103% | 99.1% | 96.8% | 85.5% | 21.8%
COc1cc2ncn(-c3cc(OCc4ccccc4C(F)(F)F)c(C(N)=O)s3)c2cc1OC | 114% | 122% | 108% | 112% | 121% | 110% | 95.2% | 45.2% | 13.8% | 11.9% | 11.8% | 117% | 112% | 121% | 112% | 110% | 111% | 115% | 71.5% | 12.2% | 11.8% | 11.1% | 113% | 111% | 111% | 112% | 123% | 109% | 103% | 85.3% | 19.5% | 17.4% | 12.8%
N=C(N)NC(=N)N1CCOCC1 | 104% | 108% | 107% | 113% | 106% | 116% | 109% | 104% | 106% | 103% | 108% | 103% | 98.3% | 90.7% | 93.2% | 97.8% | 98.1% | 99.7% | 93.5% | 87.8% | 92.5% | 92.4% | 101% | 105% | 92.4% | 102% | 109% | 93.8% | 99.8% | 96.8% | 91.2% | 86.8% | 98.9%
CCOCC(O)COc1ccc(NC(=O)CC[S+](C)C)cc1 (stereo unspecified) | 87.3% | 82.5% | 87.9% | 96% | 91.9% | 88.1% | 98.5% | 98% | 93.7% | 99% | 95% | 88.2% | 90.5% | 93% | 97.9% | 91.3% | 95.9% | 95.9% | 97.3% | 94.4% | 104% | 92.3% | 85.3% | 74.7% | 88.7% | 88.8% | 82.7% | 91.3% | 89.5% | 84.6% | 85.6% | 88% | 78.8%
C[C@H](NCc1ccc(OCc2cccc(F)c2)cc1)C(N)=O | 95.1% | 110% | 107% | 123% | 116% | 122% | 114% | 115% | 104% | 98% | 17.8% | 99.9% | 105% | 112% | 119% | 124% | 126% | 134% | 109% | 103% | 87.4% | 32.9% | 96% | 118% | 109% | 114% | 108% | 116% | 117% | 114% | 102% | 80.5% | 33.4%
